Measured values published in patent publication US8791263B2, “Cortistatin A analog and use thereof” (Osaka University, priority 2010, dated 2014).
Like-named read-outs stand apart in the source and are kept apart here. Blank lines part the entries; values can stand above or below the molecule they belong to.

What was measured:
[1] = system: normal human umbilical vein endothelial cells (HUVEC); assay: anti-proliferative activity against HUVEC (WST-8); format: cell-based; conditions: for selective anti-proliferative activity against vascular endothelial cells: HUVEC versus KB3-1, FIGS. 8 to 12; for IC50: Homo sapiens, HUVEC, 72 hours culture with compound, WST-8; for S.I. (Selective Index): IC50 against KB3-1 divided by IC50 against HUVEC
Description: (§1) CA-1, which is represented by formula (II), was used as test compound, and an existing anticancer drug doxorubicin was used as a control compound. The test compound and the control compound were separately dissolved at predetermined concentrations in EtOH. The cells used were normal human umbilical vein endothelial cells (HUVEC) and human pharyngeal carcinoma KB3-1 cells.
(§2) HUVEC and KB3-1 were seeded in separate 96-well multiwell plates at 2×10^3 cells/100 μL/well and cultured in an atmosphere of 5% CO2 at 37° C. for 24 hours. Next, 1.0 μL each of the ethanol solutions containing the test compound or the control compound at various concentrations were added, and the cells were cultured under the same conditions for additional 72 hours. After 72 hours, 10 μL of WST-8 (2-(2-methoxy-4-nitrophenyl)-3-(4-nitrophenyl)-5-(2,4-disulfophenyl)-2H-tetrazolium, monosodium salt) reagent was added. After 3-hour incubation, the amount of water-soluble formazan formed in viable cells was calorimetrically determined by measurement at OD 450 nm, and the growth inhibition ratio was calculated by comparison of the amount of formazan between the compound treatment groups and the non-treatment group. The anti-proliferative activities of the test compound and the control compound on each type of cells were expressed as a 50% growth inhibitory concentration (IC50 value). The cell type selectivity (Selective Index (S. I.) value) was expressed as a value resulting from division of the IC50 value against KB3-1 by the IC50 value against HUVEC.
CA-1, CA-2, CA-3, CA-4 and CA-5 were evaluated for anti-proliferative activity against normal human umbilical vein endothelial cells (HUVEC) and human pharyngeal carcinoma KB3-1 cells. The five test compounds were separately dissolved at predetermined concentrations in EtOH. HUVEC and KB3-1 were seeded in separate 96-well multiwell plates at 2×10^3 cells/100 μL/well and cultured in an atmosphere of 5% CO2 at 37° C. for 24 hrs. Next, 1.0 μL each of the ethanol solutions containing the test compound or the control compound at various concentrations were added, and the cells were cultured under the same conditions for additional 72 hours. After 72 hours, 10 μL of WST-8 (2-(2-methoxy-4-nitrophenyl)-3-(4-nitrophenyl)-5-(2,4-disulfophenyl)-2H-tetrazolium, monosodium salt) reagent was added. After 3-hour incubation, the amount of water-soluble formazan formed in viable cells was colorimetrically determined measurement at OD 450 nm, and the growth inhibition ratio was calculated by comparison of the amount of formazan between the compound treatment groups and the non-treatment group.

Mouse sarcoma S180 cells [2] = assay: antitumor activity in mouse cancer cell transplant model after intraperitoneal administration; format: in vivo, mice; conditions: for tumor weight, % of that of the control group: intraperitoneal, once every two days, 7 times
Description: (§3) The test compound CA-1 was suspended at predetermined concentrations in 1% CMC. The vehicle (1% CMC) was administered to the control group.
(§4) Mouse sarcoma S180 cells were suspended at 1×10^7 cells/mL in a serum-free RPMI culture medium and the suspension was kept on ice. Then, the S180 cell suspension was subcutaneously inoculated at 1×10^6 cells/100 μL/mouse into the flanks of female ddY mice (5-week old) with an injection needle of 23G. The mice were maintained for one week for engraftment of the S180 cells. Subsequently, the test compound (5 mg/kg, 10 mg/kg and 25 mg/kg) or the vehicle (1% CMC) was intraperitoneally administered on a schedule of on every two days, 7 times in total. The antitumor activity was evaluated as follows: one day after the final administration, tumors were isolated and weighed, and then the tumor weight was compared between the test compound administration groups and the control group.

[3] = system: Matrigel with proangiogenic factor bFGF (angiogenesis); assay: in vivo anti-angiogenic activity after oral administration (Matrigel, hemoglobin); set-up: species or system mice
Description: (§5) The test compound CA-1 was suspended at predetermined concentrations in 1% CMC. To control groups, the vehicle (1% CMC) was administered.
(§6) To 500 μL of Matrigel (trade name, manufactured by BD), 200 ng/mL of a proangiogenic factor bFGF (basic fibroblast growth factor) and 100 U/mL of heparin were added, and the mixture was subcutaneously injected into the flanks of female ddY mice (6-week old) with an injection needle of 23G. After the Matrigel injection, the test compound CA-1 or the vehicle (1% CMC) was intraperitoneally administered on a schedule of once every two days, 5 times in total. Aside from this, Matrigel without bFGF was injected into a group of mice and then the vehicle was administered thereto (negative control group). The anti-angiogenic effect was evaluated as follows: the day after the final administration of the test compound, the implanted Matrigel was harvested and weighed, and then the amount of hemoglobin accumulated in the Matrigel was compared between the test compound administration groups and the control groups. Significance analysis was performed using a Dunnett's test at a significance level of 5%.
The test was performed in the same manner as in Example 3, except that oral administration was performed instead of intraperitoneal administration and that a 5.0 mg/kg administration group was additionally included.

[4] = system: human umbilical vein endothelial cells (HUVEC); assay: migration and tubulogenesis of HUVEC; format: cell-based
[5] = system: human pharyngeal carcinoma KB3-1 cells; assay: anti-proliferative activity against KB3-1 (WST-8); format: cell-based; conditions: KB 3-1, 72 hours culture with compound
Description: as §1
as §2, with “After 72 hours, 10 μL of WST-8 (2-(2-methoxy-4-nitrophenyl)-3-(4-nitrophenyl)-5-(2,4-disulfophenyl)-2H-tetrazolium, monosodium salt) reagent was added.” left out, “The anti-proliferative activities of the test compound and the control compound on each type of cells were expressed as a 50% growth inhibitory concentration (IC50 value).” left out
CA-1, CA-2, CA-3, CA-4 and CA-5 were evaluated for anti-proliferative activity against normal human umbilical vein endothelial cells (HUVEC) and human pharyngeal carcinoma KB3-1 cells. […]

Mouse sarcoma S180 cells [6] = assay: antitumor activity in mouse cancer cell transplant model after oral administration; format: in vivo, mice; conditions: for tumor weight, % of that of the control group: oral
Description: as §3, §4
The test was performed in the same manner as in Example 3, except that oral administration was performed instead of intraperitoneal administration and that a 50 mg/kg administration group was included instead of the 5 mg/kg administration group.

[7] = system: Matrigel with proangiogenic factor bFGF (angiogenesis); assay: in vivo anti-angiogenic activity after intraperitoneal administration (Matrigel, hemoglobin); conditions: not less than 10 mg/kg, once every two days, 5 times, ddY mice
Description: as §5, §6

[8] = system: human umbilical vein endothelial cells (HUVEC); conditions: cited from earlier work
[9] = system: human umbilical vein endothelial cells (HUVEC); conditions: background art; cited from earlier work

IC50 [5]: 10.5 µM
SMILES: C[C@]12C=CC3=CC4=C(CCCC4=O)O[C@H]3[C@@H]1CC[C@@H]2c1ccc2ccncc2c1 [CA-1, (3R,3aR,11aS,11bR)-3-(isoquinolin-7-yl)-3a-methyl-1,2,3,3a,9,10,11a,11b-octahydrocyclopenta[c]xanthen-7(8H)-one]
selective anti-proliferative activity against vascular endothelial cells [1]: selectively inhibits the growth of vascular endothelial cells
IC50 [1]: 0.1 µM
S.I. (Selective Index) [1]: 105
anti-proliferative activity against vascular endothelial cells, times stronger than against other cancer cells ([1]; versus other cancer cells): more than 100 times
tumor weight, % of that of the control group (Mouse sarcoma S180 cells [2]; 5 mg/kg): 34%
tumor weight, % of that of the control group (Mouse sarcoma S180 cells [2]; 10 mg/kg): 23%
tumor weight, % of that of the control group (Mouse sarcoma S180 cells [2]; 25 mg/kg): 17%
weight loss, diarrhea, visual abnormalities in organs (Mouse sarcoma S180 cells [2]; intraperitoneal, 5, 10 and 25 mg/kg groups): In no groups, weight loss or diarrhea, or visual abnormalities in organs of the mice were observed
amount of hemoglobin accumulated in the Matrigel ([3]; 50 mg/kg): reduced to almost the same level as that of the group injected with Matrigel not supplemented with the proangiogenic factor bFGF
amount of hemoglobin accumulated in the Matrigel ([3]; not less than 10 mg/kg): significantly reduced the amount of hemoglobin accumulated in the Matrigel
migration and tubulogenesis of HUVEC [4]: inhibits the migration and tubulogenesis of human umbilical vein endothelial cells (HUVEC)
tumor weight, % of that of the control group (Mouse sarcoma S180 cells [6]; 10 mg/kg): 67%
tumor weight, % of that of the control group (Mouse sarcoma S180 cells [6]; 25 mg/kg): 50%
tumor weight, % of that of the control group (Mouse sarcoma S180 cells [6]; 50 mg/kg): 25%
weight loss, diarrhea, visual abnormalities in organs (Mouse sarcoma S180 cells [6]; oral, 10, 25 and 50 mg/kg groups): In no groups, weight loss or diarrhea, or visual abnormalities in organs of the mice were observed
amount of hemoglobin accumulated in the Matrigel [7]: significantly reduced the amount of hemoglobin accumulated in the Matrigel to almost the same level as that of the group injected with Matrigel not supplemented with the proangiogenic factor bFGF

SMILES: C[C@]12C=CC3=CC4=C(CC(CO)CC4=O)O[C@H]3[C@@H]1CC[C@@H]2c1ccc2ccncc2c1 (stereo partly drawn) [CA-2, (3R,3aR,11aS,11bR)-9-(hydroxymethyl)-3-(isoquinolin-7-yl)-3a-methyl-1,3,3a,8,9,10,11a,11b-octahydrocyclopenta[c]xanthen-7(2H)-one]
selective anti-proliferative activity against vascular endothelial cells [1]: selectively inhibits the growth of vascular endothelial cells
selective anti-proliferative activity against vascular endothelial cells ([1]; listed as (XVIII)): selective anti-proliferative activity against vascular endothelial cells in a broad range of concentration

SMILES: C[C@]12C=CC3=CC4=C(CC(CN)CC4=O)O[C@H]3[C@@H]1CC[C@@H]2c1ccc2ccncc2c1 (stereo partly shown) [CA-3]
selective anti-proliferative activity against vascular endothelial cells [1]: selectively inhibits the growth of vascular endothelial cells
selective anti-proliferative activity against vascular endothelial cells ([1]; listed as (XIX)): selective anti-proliferative activity against vascular endothelial cells in a broad range of concentration

SMILES: C[C@]12C=CC3=CC4=C(CC(C(=O)O)CC4=O)O[C@H]3[C@@H]1CC[C@@H]2c1ccc2ccncc2c1 (stereo partly drawn) [CA-4, (3R,3aR,11aS,11bR)-3-(isoquinolin-7-yl)-3a-methyl-7-oxo-1,2,3a,7,8,9,10,11a,11b-decahydrocyclopenta[c]xanthene-9-carboxylic acid]
selective anti-proliferative activity against vascular endothelial cells [1]: selectively inhibits the growth of vascular endothelial cells
selective anti-proliferative activity against vascular endothelial cells ([1]; listed as (XXIII)): selective anti-proliferative activity against vascular endothelial cells in a broad range of concentration

SMILES: C[C@]12C=CC3=CC4=C(CCCC4=O)O[C@H]3[C@@H]1CC(=O)[C@@H]2c1ccc2ccncc2c1 [CA-5, (3R,3aS,11aS,11bR)-3-(isoquinolin-7-yl)-3a-methyl-1,3,3a,9,10,11b-hexahydrocyclopenta[c]xanthene-2,7(8H,11aH)-dione]
selective anti-proliferative activity against vascular endothelial cells [1]: selectively inhibits the growth of vascular endothelial cells
selective anti-proliferative activity against vascular endothelial cells ([1]; listed as (LIV)): selective anti-proliferative activity against vascular endothelial cells in a broad range of concentration

SMILES: CN(C)[C@H]1C[C@@]23CC[C@@]4(O2)C(=CC[C@]2(C)[C@@H](c5ccc6ccncc6c5)CC[C@H]24)C=C3[C@@H](O)[C@@H]1O [cortistatin A]
IC50 ([8]; background art, read-out: IC50 against HUVEC): 0.0018 µM
anti-proliferative activity against HUVEC, times stronger than against other cancer cells ([8]; versus other cancer cells): more than 3000 times
migration and tubulogenesis of HUVEC [9]: inhibits the migration and tubulogenesis of HUVEC

IC50 [5]: 0.36 µM
SMILES: COc1cccc2c1C(=O)c1c(O)c3c(c(O)c1C2=O)C[C@@](O)(C(=O)CO)C[C@@H]3O[C@H]1C[C@H](N)[C@H](O)[C@H](C)O1 [doxorubicin, reference compound]
IC50 [1]: 0.13 µM
S.I. (Selective Index) [1]: 2.7
